From ChEMBL document CHEMBL1150051, “Antiviral (RNA) activity of selected Amaryllidaceae isoquinoline constituents and synthesis of related substances” (J Nat Prod, 1992)
In brackets after ≈: the same amount, converted by molar mass. Activity calls are given as the source filed them. No cut-off for these calls is given here.

Experiments:
[1] = system: Japanese encephalitis virus; experiment: Antiviral activity against Japanese encephalitis virus Beijing infected in low viral dose challenge C57BL/6 mouse model assessed as average day of death at 2 mg/kg/day, sc once daily for 7 days administered 1 day before infection measured after 28 days post infection; assay type: functional; settings: route subcutaneous
[2] = system: Sandfly fever Sicilian virus; experiment: Antiviral activity against Sandfly fever sicilian virus infected in african green monkey Vero cells assessed as inhibition of virus-induced cytopathic effect by MTT assay; assay type: functional, organism-based; settings: vero
[3] = system: Japanese encephalitis virus; experiment: Antiviral activity against Japanese encephalitis virus Beijing infected in high viral dose challenge C57BL/6 mouse model assessed inhibition of virus-induced mortality at 4 mg/kg/day, ip twice daily for 9 days administered 1 day before infection measured after 28 days post infection; assay type: functional, organism-based
Punta Toro virus = experiment: Antiviral activity against Punta Toro virus Adames infected in african green monkey Vero cells assessed as inhibition of virus-induced cytopathic effect by MTT assay; assay type: functional, organism-based
[4] = system: Japanese encephalitis virus; experiment: Antiviral activity against Japanese encephalitis virus Beijing infected in high viral dose challenge C57BL/6 mouse model assessed as average day of death at 2 mg/kg/day, ip twice daily for 9 days administered 1 day before infection measured after 28 days post infection; assay type: functional; settings: route intraperitoneal
Mus musculus [5] = experiment: Toxicity in C57BL/6 mouse assessed as change in body weight at 8 mg/kg/day, ip twice daily for 9 days administered 1 day before infection measured after 28 days post infection; assay type: organism-based; parameters: route intraperitoneal; settings: in vivo, 672 h
Mus musculus [6] = experiment: Toxicity in C57BL/6 mouse assessed as mortality at 4 mg/kg/day, ip twice daily for 9 days; assay type: organism-based; parameters: route intraperitoneal; settings: in vivo, 216 h
Mus musculus [7] = experiment: Toxicity in C57BL/6 mouse assessed as change in body weight at 4 mg/kg/day, ip twice daily for 9 days administered 1 day before infection measured after 28 days post infection; assay type: organism-based; parameters: route intraperitoneal; settings: in vivo, 672 h
[8] = system: Japanese encephalitis virus; experiment: Antiviral activity against Japanese encephalitis virus Beijing infected in high viral dose challenge C57BL/6 mouse model assessed as survival rate at 6 mg/kg/day, ip twice daily for 9 days administered 1 day before infection measured after 28 days post infection relative to control; assay type: functional; settings: route intraperitoneal
Mus musculus [9] = experiment: Toxicity in C57BL/6 mouse assessed as mortality at 2 mg/kg/day, sc once daily for 7 days; assay type: organism-based; parameters: route subcutaneous; settings: in vivo, 168 h
Mus musculus [10] = experiment: Toxicity in C57BL/6 mouse assessed as change in body weight at 6 mg/kg/day, ip twice daily for 9 days administered 1 day before infection measured after 28 days post infection; assay type: organism-based; parameters: route intraperitoneal; settings: in vivo, 672 h
[11] = system: Japanese encephalitis virus; experiment: Antiviral activity against Japanese encephalitis virus Beijing infected in low viral dose challenge C57BL/6 mouse model assessed as average day of death at 4 mg/kg/day, sc once daily for 7 days administered 1 day before infection measured after 28 days post infection; assay type: functional; settings: route subcutaneous
[12] = system: Japanese encephalitis virus; experiment: Antiviral activity against Japanese encephalitis virus Beijing infected in high viral dose challenge C57BL/6 mouse model assessed as average day of death at 5 mg/kg/day, ip twice daily for 9 days administered 1 day before infection measured after 28 days post infection; assay type: functional; settings: route intraperitoneal
[13] = system: Japanese encephalitis virus; experiment: Antiviral activity against Japanese encephalitis virus Beijing infected in low viral dose challenge C57BL/6 mouse model assessed as survival rate at 6 mg/kg/day, sc once daily for 7 days administered 1 day before infection measured after 28 days post infection relative to control; assay type: functional; settings: route subcutaneous
Mus musculus [14] = experiment: Toxicity in C57BL/6 mouse assessed as change in body weight at 2 mg/kg/day, ip twice daily for 9 days administered 1 day before infection measured after 28 days post infection; assay type: organism-based; parameters: route intraperitoneal; settings: in vivo, 672 h
Yellow fever virus = experiment: Antiviral activity against Yellow fever virus Ashibi infected in african green monkey Vero cells assessed as inhibition of virus-induced cytopathic effect by MTT assay; assay type: functional, organism-based; settings: Yellow fever virus, Ashibi, Vero; read-out: IC50
Mus musculus [15] = experiment: Toxicity in C57BL/6 mouse assessed as change in body weight at 3 mg/kg/day, ip twice daily for 9 days administered 1 day before infection measured after 28 days post infection; assay type: organism-based; parameters: route intraperitoneal; settings: in vivo, 672 h
[16] = Therapeutic index, ratio of TC50 for african green monkey Vero cells to IC50 for Japanese encephalitis virus Nakayama; assay type: cell-based; settings: read-out: TI
Mus musculus [17] = experiment: Toxicity in C57BL/6 mouse assessed as mortality at 4 mg/kg/day, sc once daily for 7 days; assay type: organism-based; parameters: route subcutaneous; settings: in vivo, 168 h
[18] = system: Japanese encephalitis virus; experiment: Antiviral activity against Japanese encephalitis virus Beijing infected in high viral dose challenge C57BL/6 mouse model assessed as average day of death at 6 mg/kg/day, ip twice daily for 9 days administered 1 day before infection measured after 28 days post infection; assay type: functional; settings: route intraperitoneal
[19] = system: Japanese encephalitis virus; experiment: Antiviral activity against Japanese encephalitis virus Nakayama infected in african green monkey Vero cells assessed as inhibition of virus-induced cytopathic effect by MTT assay; assay type: functional, organism-based; settings: Japanese encephalitis virus, Nakayama, Vero; read-out: IC50
[20] = system: Japanese encephalitis virus; experiment: Antiviral activity against Japanese encephalitis virus Beijing infected in high viral dose challenge C57BL/6 mouse model assessed as average day of death at 4 mg/kg/day, ip twice daily for 9 days administered 1 day before infection measured after 28 days post infection; assay type: functional; settings: route intraperitoneal
[21] = system: Japanese encephalitis virus; experiment: Antiviral activity against Japanese encephalitis virus Beijing infected in high viral dose challenge C57BL/6 mouse model assessed as average day of death at 8 mg/kg/day, ip twice daily for 9 days administered 1 day before infection measured after 28 days post infection; assay type: functional; settings: route intraperitoneal
[22] = Therapeutic index, ratio of TC50 for african green monkey Vero cells to IC50 for Dengue type 4 virus; assay type: cell-based; settings: read-out: TI
Mus musculus [23] = experiment: Toxicity in C57BL/6 mouse assessed as change in body weight at 5 mg/kg/day, ip twice daily for 9 days administered 1 day before infection measured after 28 days post infection; assay type: organism-based; parameters: route intraperitoneal; settings: in vivo, 672 h
[24] = system: Japanese encephalitis virus; experiment: Antiviral activity against Japanese encephalitis virus Beijing infected in low viral dose challenge C57BL/6 mouse model assessed as survival rate at 4 mg/kg/day, sc once daily for 7 days administered 1 day before infection measured after 28 days post infection relative to control; assay type: functional; settings: route subcutaneous
[25] = system: Japanese encephalitis virus; experiment: Antiviral activity against Japanese encephalitis virus Beijing infected in low viral dose challenge C57BL/6 mouse model assessed as inhibition of virus-induced mortality at 4 mg/kg/day, sc once daily for 7 days administered 1 day before infection measured after 28 days post infection; assay type: functional, organism-based
[26] = system: Japanese encephalitis virus; experiment: Antiviral activity against Japanese encephalitis virus Beijing infected in high viral dose challenge C57BL/6 mouse model assessed as average day of death at 3 mg/kg/day, ip twice daily for 9 days administered 1 day before infection measured after 28 days post infection; assay type: functional; settings: route intraperitoneal
[27] = Therapeutic index, ratio of TC50 for african green monkey Vero cells to IC50 for Rift valley fever virus; assay type: cell-based; settings: read-out: TI
[28] = Therapeutic index, ratio of TC50 for african green monkey Vero cells to IC50 for Yellow fever virus Ashibi; assay type: cell-based; settings: read-out: TI
Rift Valley fever virus = experiment: Antiviral activity against Rift Valley fever virus infected in african green monkey Vero cells after 6 days by plaque reduction assay; assay type: functional, organism-based; settings: Rift Valley fever virus, Vero, 144 h; read-out: IC50
[29] = system: Japanese encephalitis virus; experiment: Antiviral activity against Japanese encephalitis virus Beijing infected in low viral dose challenge C57BL/6 mouse model assessed as average day of death at 6 mg/kg/day, sc once daily for 7 days administered 1 day before infection measured after 28 days post infection; assay type: functional; settings: route subcutaneous
Mus musculus [30] = experiment: Toxicity in C57BL/6 mouse assessed as mortality at 3 mg/kg/day, ip twice daily for 9 days; assay type: organism-based; parameters: route intraperitoneal; settings: in vivo, 216 h
Mus musculus [31] = experiment: Toxicity in C57BL/6 mouse assessed as mortality at 6 mg/kg/day, sc once daily for 7 days; assay type: organism-based; parameters: route subcutaneous; settings: in vivo, 168 h
Mus musculus [32] = experiment: Toxicity in C57BL/6 mouse assessed as mortality at 2 mg/kg/day, ip twice daily for 9 days; assay type: organism-based; parameters: route intraperitoneal; settings: in vivo, 216 h
dengue virus type 4 = experiment: Antiviral activity against Dengue virus type 4 infected in african green monkey Vero cells after 6 days by plaque reduction assay; assay type: functional, organism-based; settings: Dengue virus, Vero, 144 h; read-out: IC50
Mus musculus [33] = experiment: Toxicity in C57BL/6 mouse assessed as average day of death at 6 mg/kg/day, sc once daily for 7 days; assay type: organism-based; parameters: route subcutaneous; settings: in vivo, 168 h

In the case of `O=C1N[C@H]2[C@H](O)[C@H](O)[C@@H](O)[C@H](O)[C@@H]2c2cc3c(c(O)c21)OCO3` [PANCRATISTATIN], the Activity [1] is reported as 16.3 days, the IC50 [2] is reported as “Not Active” and the Activity [3] is reported as “inactive”. For the same compound, the “inhibition (INH)” value (Punta Toro virus) was 25%, the Activity [4] was 12.6 days and the Activity (Mus musculus [5]) was 1.5. For the same compound, the Activity (Mus musculus [6]) was “Non-toxic”, the Activity (Mus musculus [7]) was 1.8 and the Activity [8] was 50%. The Activity (Mus musculus [9]) was “Non-toxic”, the Activity (Mus musculus [10]) was 1.3 and the Activity [11] was 15.4 days. It also gave an Activity [12] of 10.4 days, an Activity [13] of 90% and an Activity (Mus musculus [14]) of 2.8. For the same compound, the IC50 (Yellow fever virus) was 0.016 mg/L (≈ 0.0492 µM), the Activity (Mus musculus [15]) was 2.1 and the selectivity ratio [16] was 4.2. For the same compound, the Activity (Mus musculus [17]) was “Not Active”, the Activity [18] was 11.8 days and the IC50 [19] was 0.022 mg/L (≈ 0.0676 µM). For the same compound, the Activity [20] was 12.3 days, the Activity [21] was 12.9 days and the selectivity ratio [22] was 8. For the same compound, the Activity (Mus musculus [23]) was 1.4, the Activity [24] was 30% and the Activity [25] was “Active”. It also gave an Activity [26] of 12.6 days, a selectivity ratio [27] of 3.1 and a selectivity ratio [28] of 4.9. For the same compound, the IC50 (Rift Valley fever virus) was 0.16 mg/L (≈ 0.492 µM), the Activity [29] was 15 days and the Activity (Mus musculus [30]) was “Non-toxic”. For the same compound, the Activity (Mus musculus [31]) was “Non-toxic”, the Activity (Mus musculus [32]) was “Non-toxic” and the IC50 (dengue virus type 4) was 0.063 mg/L (≈ 0.194 µM). For the same compound, the AD50 (Mus musculus [33]) was 2.7 days.
